In US20240352010A1, “SUBSTITUTED 1,2,4-THIADIAZOLYL NICOTINAMIDES, SALTS OR N-OXIDES THEREOF AND THEIR USE AS HERBICIDALLY ACTIVE SUBSTANCES” (BayerAktiengesellschaft, priority 2021, published 2024):

Columns and labels:
Assay type in all cases: in vivo
Poa annua (POAAN) = assay: Herbicidal post-emergence action, POAAN
Excerpt: (§1) Seeds of mono- and dicotyledonous weed plants were sown in plastic pots (double sowings with one species of mono- and one species of dicotyledonous weed plants per pot), in sandy loam, covered with soil and grown under controlled growth conditions. 2 to 3 weeks after sowing, the test plants were sprayed in the single-leaf stage. The compounds according to the invention, formulated in the form of wettable powders (WP) or as emulsifiable concentrates (EC), were sprayed onto the green plant parts as an aqueous suspension or as an emulsion, with the addition of 0.5% of an additive, at an application rate of 600 litres of water per hectare (converted). The test plants were placed in the greenhouse for ca. 3 weeks under optimum growth conditions, and then the effect of the preparations is assessed visually in comparison with untreated controls (herbicidal effect in percent (%): 100% effect=plants have died, 0% effect=as control plants). […]

Lolium rigidum (LOLRI) [1] = assay: Herbicidal post-emergence action, LOLRI
Excerpt: as §1

Stellaria media (STEME) [2] = assay: Herbicidal pre-emergence action, STEME
Excerpt: (§2) Seeds of mono- and dicotyledonous weed plants were sown in plastic pots (double sowings with one species of mono- and one species of dicotyledonous weed plants per pot), in sandy loam, and covered with soil. The compounds according to the invention, formulated in the form of wettable powders (WP) or as emulsifiable concentrates (EC), were applied to the surface of the covering soil as an aqueous suspension or as an emulsion, with the addition of 0.5% of an additive, at an application rate of 600 litres of water per hectare (converted). Following treatment, the pots were placed in a greenhouse and kept under optimum growth conditions for the test plants. The visual grading of the damage to the test plants is carried out after ca. 3 weeks in comparison to untreated controls (herbicidal effect in percent (%): 100% effect=plants have died, 0% effect=as control plants). Seeds of mono- and dicotyledonous weed plants were sown in plastic pots (double sowings with one species of mono- and one species of dicotyledonous weed plants per pot), in sandy loam, and covered with soil. The compounds according to the invention, formulated in the form of wettable powders (WP) or as emulsifiable concentrates (EC), were applied to the surface of the covering soil as an aqueous suspension or as an emulsion, with the addition of 0.5% of an additive, at an application rate of 600 litres of water per hectare (converted). Following treatment, the pots were placed in a greenhouse and kept under optimum growth conditions for the test plants. The visual grading of the damage to the test plants is carried out after ca. 3 weeks in comparison to untreated controls (herbicidal effect in percent (%): 100% effect=plants have died, 0% effect=as control plants).

[3] = test system: Amaranthus retroflexus (AMARE); assay: Herbicidal post-emergence action, AMARE
Excerpt: as §1

[4] = test system: Abutilon theophrasti (ABUTH); assay: Herbicidal pre-emergence action, ABUTH; conditions: 1280 g/ha, visual grading after ca. 3 weeks vs untreated controls (Table A1)
Excerpt: Seeds of mono- and dicotyledonous weed plants were sown in plastic pots (double sowings with one species of mono- and one species of dicotyledonous weed plants per pot), in sandy loam, and covered with soil. The compounds according to the invention, formulated in the form of wettable powders (WP) or as emulsifiable concentrates (EC), were applied to the surface of the covering soil as an aqueous suspension or as an emulsion, with the addition of 0.5% of an additive, at an application rate of 600 litres of water per hectare (converted). Following treatment, the pots were placed in a greenhouse and kept under optimum growth conditions for the test plants. The visual grading of the damage to the test plants is carried out after ca. 3 weeks in comparison to untreated controls (herbicidal effect in percent (%): 100% effect=plants have died, 0% effect=as control plants).

Lolium rigidum (LOLRI) [5] = assay: Herbicidal pre-emergence action, LOLRI
Excerpt: as §2

[6] = test system: Matricaria inodora (MATIN); assay: Herbicidal pre-emergence action, MATIN
Excerpt: as §2

[7] = test system: Amaranthus retroflexus (AMARE); assay: Herbicidal pre-emergence action, AMARE
Excerpt: as §2

Stellaria media (STEME) [8] = assay: Herbicidal post-emergence action, STEME
Excerpt: as §1

Veronica persica (VERPE) = assay: Herbicidal post-emergence action, VERPE
Excerpt: as §1

[9] = test system: Echinochloa crus-galli (ECHCG); assay: Herbicidal post-emergence action, ECHCG
Excerpt: as §1

[10] = test system: Echinochloa crus-galli (ECHCG); assay: Herbicidal pre-emergence action, ECHCG
Excerpt: as §2

Kochia scoparia (KCHSC) = assay: Herbicidal pre-emergence action, KCHSC
Excerpt: as §2

[11] = 320 g/ha, assessed visually after ca. 3 weeks vs untreated controls (Table D3)
[12] = 1280 g/ha, assessed visually after ca. 3 weeks vs untreated controls (Table B8)
[13] = 1280 g/ha, assessed visually after ca. 3 weeks vs untreated controls (Table B5)
[14] = 320 g/ha, visual grading after ca. 3 weeks vs untreated controls (Table C6)
[15] = 1280 g/ha, visual grading after ca. 3 weeks vs untreated controls (Table A9)
[16] = 320 g/ha, assessed visually after ca. 3 weeks vs untreated controls (Table D6)
[17] = 1280 g/ha, assessed visually after ca. 3 weeks vs untreated controls (Table B11)
[18] = 320 g/ha, visual grading after ca. 3 weeks vs untreated controls (Table C2)
[19] = 1280 g/ha, visual grading after ca. 3 weeks vs untreated controls (Table A5)
[20] = 320 g/ha, visual grading after ca. 3 weeks vs untreated controls (Table C3)
[21] = 1280 g/ha, visual grading after ca. 3 weeks vs untreated controls (Table A6)
[22] = 320 g/ha, visual grading after ca. 3 weeks vs untreated controls (Table C8)
[23] = 1280 g/ha, visual grading after ca. 3 weeks vs untreated controls (Table A11)
[24] = 320 g/ha, assessed visually after ca. 3 weeks vs untreated controls (Table D4)
[25] = 1280 g/ha, assessed visually after ca. 3 weeks vs untreated controls (Table B9)
[26] = 320 g/ha, assessed visually after ca. 3 weeks vs untreated controls (Table D5)
[27] = 1280 g/ha, assessed visually after ca. 3 weeks vs untreated controls (Table B10)
[28] = 1280 g/ha, assessed visually after ca. 3 weeks vs untreated controls (Table B3)
[29] = 1280 g/ha, visual grading after ca. 3 weeks vs untreated controls (Table A3)
[30] = 320 g/ha, visual grading after ca. 3 weeks vs untreated controls (Table C1)
[31] = 1280 g/ha, visual grading after ca. 3 weeks vs untreated controls (Table A4)

Row | Structure (SMILES) | herbicidal effect in percent, POAAN (Poa annua (POAAN); [11]) | herbicidal effect in percent, POAAN (Poa annua (POAAN); [12]) | herbicidal effect in percent, LOLRI (Lolium rigidum (LOLRI) [1]; [13]) | herbicidal effect in percent, STEME (Stellaria media (STEME) [2]; [14]) | herbicidal effect in percent, STEME (Stellaria media (STEME) [2]; [15]) | herbicidal effect in percent, AMARE [3, 16] | herbicidal effect in percent, AMARE [3, 17] | herbicidal effect in percent, ABUTH [4] | herbicidal effect in percent, LOLRI (Lolium rigidum (LOLRI) [5]; [18]) | herbicidal effect in percent, LOLRI (Lolium rigidum (LOLRI) [5]; [19]) | herbicidal effect in percent, MATIN [6, 20] | herbicidal effect in percent, MATIN [6, 21] | herbicidal effect in percent, AMARE [7, 23] | herbicidal effect in percent, STEME (Stellaria media (STEME) [8]; [24]) | herbicidal effect in percent, STEME (Stellaria media (STEME) [8]; [25]) | herbicidal effect in percent, VERPE (Veronica persica (VERPE); [26]) | herbicidal effect in percent, VERPE (Veronica persica (VERPE); [27]) | herbicidal effect in percent, ECHCG [9, 28] | herbicidal effect in percent, ECHCG [10, 29] | herbicidal effect in percent, KCHSC (Kochia scoparia (KCHSC); [31]) | further results
1 | O=C(Nc1ncns1)c1c(C2CC2)ccnc1Cl [Example I-003, 2-chloro-4-cyclopropyl-N-(1,2,4-thiadiazol-5-yl)pyridine-3-carboxamide] | 90% | 100% | 90% | 100% | 100% | 100% | 100% | 90% | 90% | 90% | 100% | 100% | 100% | 100% | 100% | 90% | 100% | 90% | 90% | 100% | herbicidal effect in percent, AMARE [7, 22]: 90%; herbicidal effect in percent, KCHSC (Kochia scoparia (KCHSC); [30]): 90%
2 | O=C(Nc1ncns1)c1c(C2CC2)ccnc1F [Example I-005] | 100% | 100% | 100% | 100% | 100% | 100% | 100% | 90% | 100% | 100% | 100% | 100% | 100% | 100% | 100% | 100% | 100% | 90% | 90% | 100% | herbicidal effect in percent, LOLRI (Lolium rigidum (LOLRI) [1]; 320 g/ha, assessed visually after ca. 3 weeks vs untreated controls (Table D9)): 100%; herbicidal effect in percent, AMARE [7, 22]: 100%; herbicidal effect in percent, ECHCG ([10]; 320 g/ha, visual grading after ca. 3 weeks vs untreated controls (Table C9)): 90%; herbicidal effect in percent, KCHSC (Kochia scoparia (KCHSC); [30]): 100%
3 | O=C(Nc1nc(Cl)ns1)c1c(C2CC2)ccnc1Cl [Example I-013] | 90% | 90% | 90% | 90% | 100% | 90% | 90% | 90% | – | 90% | 90% | 100% | 90% | 90% | 90% | 90% | 90% | 90% | 90% | 90% | herbicidal effect in percent, ECHCG ([9]; 320 g/ha, assessed visually after ca. 3 weeks vs untreated controls (Table D7)): 90%
